Measured values as given in patent US20180344702A1, “METHODS FOR TREATING PATIENTS WITH HEMATOLOGIC MALIGNANCIES” (Aptose Biosciences, Inc., priority 2017, published 2018).

Columns and labels:
[1] = tested on: BTK pathway in MV4-11 cells; assay: Western blot analysis in MV4-11 cells; assay type: cell-based, human; settings: 0.5, 5.0, and 50 nM, FIG. 2
Experimental: (§1) Immunoblot assays: Cells were treated with Compound 7 at various concentrations and collected for cell lysates. The total and phosphorylated levels of the indicated proteins were determined by Western Blot.

[2] = tested on: FLT3 pathway in MV4-11 cells; assay: Western blot analysis in MV4-11 cells; assay type: cell-based, human; settings: FIG. 1
Experimental: as §1

Mino = assay: Apoptosis in B-cell malignancies (annexin V/PI, cleaved PARP); assay type: cell-based, human; settings: increasing concentrations
Experimental: Mechanistic studies were undertaken to determine the mechanism of action for Compound 7. The apoptotic state of treated cells was determined by staining with annexin V and propidium iodide (PI), then analysis with the BD Accuri C6 flow cytometer, whereby live cells are annexin V/PI negative, early apoptotic cells are annexin V positive and late apoptotic cells are annexin V and PI positive. In addition production of cleaved PARP, a classic apoptotic marker, was assayed by western blotting with specific antibodies.

[3] = tested on: BCR signaling in Ramos cells; assay: BCR signaling in IgM-stimulated Ramos cells; assay type: cell-based; settings: 1 or 6 hours, then 12 μg/mL IgM for 3 min
Experimental: In this experiment, Ramos cells were treated with or without Compound 7 or Ibrutinin at the indicated concentration for 1 (6 replicates) or 6 (3 replicates) hours, then stimulated with 12 μg/mL IgM for 3 min.

KG-1 = assay: Cytotoxicity, MTS cell viability; assay type: cell-based; settings: Homo sapiens, AML, 72 hour MTS
Experimental: (§2) Cytotoxicity procedure: Cells were seeded in 96-well plate and treated with vehicle DMSO or Compound 7 at a specified concentration and incubated for 72 hours.

SKM-1 = assay: Cytotoxicity, MTS cell viability; assay type: cell-based; settings: Homo sapiens, AML, 72 hour MTS
Experimental: as §2

EOL-1 = assay: Cytotoxicity, MTS cell viability; assay type: cell-based; settings: Homo sapiens, EOL1, AML, 72 hour MTS
Experimental: as §2

MV4-11 = assay: Cytotoxicity, MTS cell viability; assay type: cell-based; settings: Homo sapiens, AML, 72 hour MTS
Experimental: as §2

THP-1 = assay: Cytotoxicity, MTS cell viability; assay type: cell-based; settings: Homo sapiens, AML, 72 hour MTS
Experimental: as §2

Jurkat = assay: Cytotoxicity, MTS cell viability; assay type: cell-based; settings: Homo sapiens, ALL, 72 hour MTS
Experimental: as §2

HL60 = assay: Cytotoxicity, MTS cell viability; assay type: cell-based; settings: Homo sapiens, HL-60, AML, 72 hour MTS
Experimental: as §2

NOM0-1 = assay: Cytotoxicity, MTS cell viability; assay type: cell-based; settings: AML, 72 hour MTS
Experimental: as §2

HEL92.1.7 = assay: Cytotoxicity, MTS cell viability; assay type: cell-based; settings: Homo sapiens, HEL 92.1.7, AML, 72 hour MTS
Experimental: as §2

MUTZ-8 = assay: Cytotoxicity, MTS cell viability; assay type: cell-based; settings: AML, 72 hour MTS
Experimental: as §2

Molm-13 = assay: Cytotoxicity, MTS cell viability; assay type: cell-based; settings: Homo sapiens, AML, 72 hour MTS
Experimental: as §2

BTK C481S = BTK C481S (Homo sapiens, UniProt Q06187, C481S); assay: Inhibition of BTK, kinase IC50; assay type: biochemical; parameters: RBC (only as the name of the general kinase protocol)
Experimental: RBC HotSpot Kinase Assay Protocol:
Reagents used: Base Reaction buffer; 20 mM Hepes (pH 7.5), 10 mM MgCl2, 1 mM EGTA, 0.02% Brij35, 0.02 mg/ml BSA, 0.1 mM Na3VO4, 2 mM DTT, 1% DMSO. Required cofactors are added individually to each kinase reaction.
Compound 7 was dissolved in 100% DMSO to a specified concentration. The serial dilution was conducted by epMotion 5070 in DMSO. The substrate was freshly prepared in Reaction Buffer and any required cofactors to the substrate solution were added. The kinase was added to the solution and gently mixed. Compound 7 was added in 100% DMSO into the kinase reaction mixture by Acoustic technology (Echo550; nanoliter range), and incubated for 20 min at room temperature. ^33P-ATP (Specific activity 10 μCi/μl) was added into the reaction mixture to initiate the reaction, which was incubated for 2 hours, whereupon kinase activity was detected by the filter-binding method.

[4] = tested on: Ba/F3 cells transfected with FLT3 D835Y; assay: Cytotoxicity in isogenic transfected Ba/F3 cells (Table 4); assay type: cell-based, Murin; settings: Mus musculus, BaF3, read-out: IC50 in Transfected Ba/F3 cells, FLT3 D835Y
[5] = tested on: BTK and Aurora kinase in Ramos cells; assay: Cell signaling in Ramos cells (Western blot); assay type: cell-based; settings: relative to ibrutinib
Experimental: as §1

THP-1 (FLT3-WT, t(9:11)) = assay: Antiproliferative activity (Table 6); assay type: cell-based; settings: Homo sapiens, THP-1, 72 h
[6] = tested on: Ba/F3 cells transfected with FLT3 ITD; assay: Cytotoxicity in isogenic transfected Ba/F3 cells (Table 4); assay type: cell-based, Murin; settings: Mus musculus, BaF3, read-out: IC50 in Transfected Ba/F3 cells, FLT3 ITD
MV4-11 cells = assay: Apoptosis of MV4-11 cells (Annexin V, Western blot); assay type: cell-based, human
Experimental: The data presented in FIGS. 7A-7C, FIGS. 8A-8B, and FIGS. 17A-17J were generated using well-known protocols for measuring apoptosis, which are readily apparent to a skilled artisan. Without being bound by any theory, an overview of the procedure can be found in, for example, Rieger et al., Modified Annexin V/Propidium Iodide Apoptosis Assay For Accurate Assessment of Cell Death, J VI. Exp. 2011; (50): 2597.
IC50s and EC50s: Certain cell viability studies described herein were assessed using the Tryptan blue dye exclusion method or the MTS assay. Certain apoptosis studies and related studies described herein were determined via FACS by annexin V positivity.

[7] = tested on: isogenic BA/F3 cells with FLT3 mutations; assay: Cell-cycle dysregulation (flow cytometry); assay type: cell-based; settings: dose-dependent
Experimental: (§3) Cell-cycle analysis: Cells were treated with vehicle, DMSO or Compound 7 and were stained with PI and EdU, and then analyzed by flow cytometry to determine the phases of cell cycle.

KG-1 cells = assay: Cell-cycle dysregulation (flow cytometry); assay type: cell-based; settings: dose-dependent
Experimental: as §3

NOMO-1 cells = assay: Cell-cycle dysregulation (flow cytometry); assay type: cell-based; settings: dose-dependent
Experimental: as §3

BTK C481S, sequence (Q06187 whole entry C481S): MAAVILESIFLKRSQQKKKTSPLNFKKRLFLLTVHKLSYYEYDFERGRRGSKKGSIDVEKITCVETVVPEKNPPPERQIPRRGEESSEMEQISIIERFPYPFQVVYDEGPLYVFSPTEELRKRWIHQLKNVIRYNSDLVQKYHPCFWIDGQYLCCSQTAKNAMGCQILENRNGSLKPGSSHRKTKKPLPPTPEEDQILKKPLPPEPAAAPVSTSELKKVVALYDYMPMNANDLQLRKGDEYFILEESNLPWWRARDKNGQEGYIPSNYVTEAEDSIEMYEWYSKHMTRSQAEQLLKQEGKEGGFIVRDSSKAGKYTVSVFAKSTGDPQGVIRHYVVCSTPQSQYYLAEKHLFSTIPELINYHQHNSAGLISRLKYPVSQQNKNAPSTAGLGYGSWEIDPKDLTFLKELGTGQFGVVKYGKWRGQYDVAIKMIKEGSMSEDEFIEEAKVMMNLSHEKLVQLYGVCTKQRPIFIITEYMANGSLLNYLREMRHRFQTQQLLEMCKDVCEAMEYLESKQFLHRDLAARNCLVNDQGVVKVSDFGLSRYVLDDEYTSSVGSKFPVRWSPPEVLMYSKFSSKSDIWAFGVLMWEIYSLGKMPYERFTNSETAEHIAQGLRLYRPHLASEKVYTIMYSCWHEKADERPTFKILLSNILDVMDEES

Compound: Cc1cnc(-c2ccc(-c3ccc(NC(=O)Nc4c(F)cc(F)cc4F)cc3F)c3c2C(=O)NC3)[nH]1 [Compound 7, 1-{3-fluoro-4-[7-(5-methyl-1H-imidazol-2-yl)-1-oxo-2,3-dihydro-1H-isoindol-4-yl]-phenyl}-3-(2,4,6-trifluorophenyl)urea]
- Inhibition of BTK pathway (Western blot) [1]: inhibits BTK pathway
- Inhibition of FLT3 pathway (Western blot) [2]: inhibits FLT3 pathway
- Apoptosis induction versus ibrutinib (Mino): induced apoptosis more effectively than ibrutinib at all concentrations tested
- BCR signaling [3]: affects the BCR signaling
- IC50 (KG-1): 28.7 nM
- IC50 (SKM-1): 816 nM
- IC50 (EOL-1): 0.045 nM
- IC50 (MV4-11): 0.238 nM
- IC50 (THP-1): 2970 nM
- IC50 (Jurkat): 1590 nM
- IC50 (HL60): 280 nM
- IC50 (NOM0-1): 20.5 nM
- IC50 (HEL92.1.7): 4690 nM
- IC50 (MUTZ-8): 794 nM
- IC50 (Molm-13): 0.395 nM
- IC50 (BTK C481S): 2.52 nM
- IC50 [4]: 8.8 nM
- BTK and Aurora kinase activity [5]: inhibits BTK and Aurora kinase activity
- IC50 (THP-1 (FLT3-WT, t(9:11))): 3.88 nM
- IC50 [6]: 0.5 nM
- Time dependency of apoptosis (MV4-11 cells; MV4-11 cells, 1, 3, 6, 24 hour): induces apoptosis in a time dependent manner
- Apoptosis induction (MV4-11 cells; MV411 cells, 24 hours, various concentrations): induces apoptosis
- Cell-cycle dysregulation [7]: induce cell-cycle dysregulation
- Cell-cycle dysregulation (KG-1 cells): induce cell-cycle dysregulation
- Cell-cycle dysregulation (NOMO-1 cells): induce cell-cycle dysregulation
